The results in this text go back to patent US8633005B2, “Isocyclomaltooligosaccharide(s), isocyclomaltooligosaccharide-forming enzyme, their preparation and uses” (Hayashibara Co., Ltd., priority 2004, dated 2014).

Where two headings read alike, the source gives them in different places.

The test system of data set [1] is small intestinal enzymes. Kind of data set: Digestibility of ICM by small intestinal enzymes. The following applies: reducing saccharides/total saccharides x100.
Source text: (§1) 43, 23-29 (1990), the digestibility of ICM by salivary α-amylase, artificial gastric juice, pancreas amylase, and small intestinal enzymes were investigated using ICG5, used in Experiment 15. […] In Table 18, the digestion (%) means a value calculated by the formula: Digestion (%)=(The amount of reducing saccharides/The amount of the total saccharides)×100 , in respective reaction described above.
Data set [2] can be described thus: Digestibility of ICM by artificial gastric juice. The following applies: reducing saccharides/total saccharides x100.
Source text: as §1
A further data set relates to ICM-forming enzyme. As to the kind of experiment: Action on various saccharides (substrate specificity, TLC). It is filed as biochemical, Bacillus circulans AM7. Details: key: −: Not changed; +: Spot of substrate is slightly decreased and the formation of ICM are detected; ++: Spot of substrate is markedly decreased and the formation of ICM are detected; +++: Spot of substrate is virtually disappeared and the formation of ICM are detected. The conditions noted are these: substrate 2% (w/v), one unit/g-substrate enzyme, 40° C., pH 6.0, 24 hours. The protocol:
Substrate specificity of ICM-forming enzyme was investigated using various saccharides as substrates. Substrate solutions were prepared by dissolving maltose, maltotriose, maltotetraose, maltopentaose, maltohexaose, maltoheptaose, neotrehalose, trehalose, kojibiose, nigerose, isomaltose, isomaltotriose, panose, isopanose, maltitol, maltotriitol, α-, β-, or γ-cyclodextrin, amylose, soluble starch, glycogen, pullulan or dextran in water. Each substrate solution was admixed with acetate buffer (pH 6.0) and CaCl2 to give final concentrations of 20 mM and 1 mM, respectively. […] Substrate concentration was set to 2% (w/v) and followed by the enzyme reaction at 40° C. and pH 6.0 for 24 hours. To examine the saccharides in each mixture before and after the reaction, saccharides were separated by silica gel thin-layer chromatography (hereinafter, simply abbreviated as “TLC”) using “KIESELGEL 60”, a TLC aluminum plate (10×20 cm) and a solvent (n-butanol/pyridine/water, volume ratio of 6:4:1) and two-times ascending method. The separated saccharides on the plate were detected by visualizing the spots with sulfate-methanol method. By the above TLC analyses, the enzymatic action and the degree of the reaction of ICM-forming enzyme on each substrate were confirmed.

The target of the next data set is T1, salivary α-amylase (Homo sapiens, UniProt P0DUB6).
T1 sequence (P0DUB6 16-511): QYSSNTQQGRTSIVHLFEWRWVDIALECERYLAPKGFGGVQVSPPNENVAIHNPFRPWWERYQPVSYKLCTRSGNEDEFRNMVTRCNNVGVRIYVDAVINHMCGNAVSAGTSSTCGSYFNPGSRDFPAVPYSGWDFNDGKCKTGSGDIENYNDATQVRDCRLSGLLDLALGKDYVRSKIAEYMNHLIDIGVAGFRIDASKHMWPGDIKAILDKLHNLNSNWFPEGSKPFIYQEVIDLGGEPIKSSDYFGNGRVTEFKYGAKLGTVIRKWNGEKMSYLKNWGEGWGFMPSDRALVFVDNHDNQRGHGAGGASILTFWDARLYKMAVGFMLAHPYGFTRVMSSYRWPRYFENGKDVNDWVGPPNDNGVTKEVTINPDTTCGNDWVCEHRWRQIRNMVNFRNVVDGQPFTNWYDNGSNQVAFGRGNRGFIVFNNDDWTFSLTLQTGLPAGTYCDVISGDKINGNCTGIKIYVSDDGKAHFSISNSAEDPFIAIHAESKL
Kind of data set: Digestibility of ICM by salivary α-amylase. The following applies: reducing saccharides/total saccharides x100.

A further data set has as its system pancreas α-amylase. As to the kind of experiment: Digestibility of ICM by pancreas α-amylase. The conditions noted are these: reducing saccharides/total saccharides x100.
Data set [3] concerns small intestinal enzymes.
Source text: as §1
The nature of data set [4]: Amino-carbonyl reaction with glycine. Type of data set: physicochemical. The following applies: 5% (w/v) saccharide + 1% (w/v) glycine, pH 7.0, 120° C., blank subtracted. The protocol: ICG5, used in Experiment 15 and commercially available super high-grade glycine were dissolved in deionized water, and then admixed with phosphate buffer to make into an aqueous ICG5 solution containing 5% (w/v) of ICG5 and 1% (w/v) glycine, adjusted to pH 7.0. As a control, an aqueous α-cyclodextrin (α-CD) solution containing α-CD and glycine was prepared in the same manner using α-CD in place of ICG5. Four milliliters each of the solution was put in a glass tube, sealed and then heated at 120° C. for 30, 60, or 90 min. After cooling the solutions in ambient temperature, the degrees of coloring of the solutions were measured to estimate the degree of amino-carbonyl reaction. As a blank test, a solution containing glycine only was heated in the same manner. The degree of coloring was defined as an absorbance at 480 nm using a 1 cm-cell after subtracting the absorbance of the blank test.

Data set [5] in a line: Amino-carbonyl reaction with polypeptone. Type of data set: physicochemical. The following applies: with 5% (w/v) polypeptone, 120° C., blank subtracted. The protocol: ICG5 used in Experiment 15 and commercially available polypeptone, commercialized by Nihon Pharmaceutical Co., Ltd., Tokyo, Japan, were dissolved in deionized water to make into an aqueous solution containing […] and 5% (w/v) of polypeptone. As a control, an aqueous solution containing α-CD and polypeptone was prepared in the same manner using α-CD in place of ICG5. Four milliliters each of the solution was put in a glass tube, sealed and then heated at 120° C. for 30, 60, or 90 min. After cooling the solutions in ambient temperature, the degrees of coloring of the solutions were measured to estimate the degree of amino-carbonyl reaction. As a blank test, a solution containing polypeptone only was heated in the same manner. The degree of coloring was defined as an absorbance at 480 nm using a 1 cm-cell after subtracting the absorbance of the blank test.

Data set [6] in a line: Clathrating action of ICM (amount of compound clathrated, gas-chromatography). The following applies: 3-folds molar amount. Type of data set: physicochemical. The protocol: ICG5 used in Experiment 15, was dissolved in deionized water to make into an aqueous solution containing 20% (w/v) of ICG5. Twenty milliliters of the aqueous solution was admixed with 3-folds amount, on a molar basis to ICG5, of either of four kinds of short chain alcohols, i.e., methanol, ethanol, propanol, and butanol; four kinds of short chain fatty acids, i.e., acetic acid, propionic acid, n-butyric acid, and n-valeic acid; and four kinds of aromatic compounds, i.e., benzyl alcohol, phenethyl alcohol, 4-phenyl-1-propanol, and o-cresol; and then stirred the mixture to homogeneity for allowing ICG5 to clathrate the compound. Successively, each solution was filtrated, and the resulting filtrate was freeze-dried to remove unclathrated compound. In order to measure the amount of compound clathrated in the freeze-dried product, the amount of each compound in each freeze-dried product was determined by gas-chromatography. Alpha-CD was used as a control and subjected to the similar test.

Source text for pancreas α-amylase: as §1
Source text for salivary α-amylase: as §1

On to `OC[C@H]1O[C@@H]2O[C@H]3[C@H](O)[C@@H](O)[C@@H](O[C@H]4[C@H](O)[C@@H](O)[C@@H](O[C@H]5[C@H](O)[C@@H](O)[C@@H](O[C@H]6[C@H](O)[C@@H](O)[C@@H](O[C@H]7[C@H](O)[C@@H](O)[C@@H](O[C@H]8[C@H](O)[C@@H](O)[C@@H](O[C@H]9[C@H](O)[C@@H](O)[C@@H](O[C@H]1[C@H](O)[C@H]2O)O[C@@H]9CO)O[C@@H]8CO)O[C@@H]7CO)O[C@@H]6CO)O[C@@H]5CO)O[C@@H]4CO)O[C@@H]3CO` [γ-CD, γ-cyclodextrin], for which the Digestion was 57.4% in the data set on small intestinal enzymes [1], 0% in data set [2], 0.1% on salivary α-amylase and 5.4% in the data set on pancreas α-amylase. For the same compound, the Action result with ICM-forming enzyme was “−”.
For `OC[C@H]1O[C@@H]2O[C@H]3[C@H](O)[C@@H](O)[C@@H](O[C@H]4[C@H](O)[C@@H](O)[C@@H](O[C@H]5[C@H](O)[C@@H](O)[C@@H](O[C@H]6[C@H](O)[C@@H](O)[C@@H](O[C@H]7[C@H](O)[C@@H](O)[C@@H](O[C@H]1[C@H](O)[C@H]2O)O[C@@H]7CO)O[C@@H]6CO)O[C@@H]5CO)O[C@@H]4CO)O[C@@H]3CO` [α-CD, α-cyclodextrin], the Action result with ICM-forming enzyme is given as “−”. For the same compound, the values for the Digestion at salivary α-amylase, in the data set on small intestinal enzymes [3] and in the data set on pancreas α-amylase were 0%, 0.2% and 0%, respectively. The Degree of coloring came out at 0.02 A480 nm in data set [4] (heating time 0 min); 0.02 A480 nm in data set [4] (heating time 30 min); 0.03 A480 nm in data set [4] (heating time 60 min); 0.02 A480 nm in [4] (heating time 90 min); 0.01 A480 nm in data set [5] (heating time 0 min); 0.03 A480 nm in data set [5] (heating time 30 min). In addition, the Degree of coloring in data set [5] (heating time 60 min) turned out to be 0.04 A480 nm; in data set [5] (heating time 90 min), 0.06 A480 nm. The “Amount of compound clathrated” value in data set [6] (objective compound: 4-Phenyl 1-propanol (aromatic compound)) came out at 171.5 mg/g-freeze-dried product; in [6] (objective compound: Acetic acid (short chain fatty acid)), 15.1 mg/g-freeze-dried product; in data set [6] (objective compound: Benzyl alcohol (aromatic compound)), 165.7 mg/g-freeze-dried product; in [6] (objective compound: Butanol (short chain alcohol)), 79.5 mg/g-freeze-dried product; in data set [6] (objective compound: Ethanol (short chain alcohol)) it was 36.7 mg/g-freeze-dried product; in data set [6] (objective compound: Methanol (short chain alcohol)), 16.7 mg/g-freeze-dried product. For the same compound, the “Amount of compound clathrated” value in [6] (objective compound: Phenethyl alcohol (aromatic compound)) is 144.4 mg/g-freeze-dried product; in data set [6] (objective compound: Propanol (short chain alcohol)) it was 66.8 mg/g-freeze-dried product; in data set [6] (objective compound: Propionic acid (short chain fatty acid)), 16.6 mg/g-freeze-dried product; in data set [6] (objective compound: n-Butyric acid (short chain fatty acid)) it was 13.2 mg/g-freeze-dried product; in data set [6] (objective compound: n-Valeic acid (short chain fatty acid)), 45.0 mg/g-freeze-dried product; in data set [6] (objective compound: o-Cresol (aromatic compound)), 49.5 mg/g-freeze-dried product.
`OC[C@H]1O[C@@H]2O[C@H]3[C@H](O)[C@@H](O)[C@@H](O[C@H]4[C@H](O)[C@@H](O)[C@@H](O[C@H]5[C@H](O)[C@@H](O)[C@@H](O[C@H]6[C@H](O)[C@@H](O)[C@@H](O[C@H]7[C@H](O)[C@@H](O)[C@@H](O[C@H]8[C@H](O)[C@@H](O)[C@@H](O[C@H]1[C@H](O)[C@H]2O)O[C@@H]8CO)O[C@@H]7CO)O[C@@H]6CO)O[C@@H]5CO)O[C@@H]4CO)O[C@@H]3CO` [β-CD, β-cyclodextrin]: the Digestion in the data set on small intestinal enzymes [1] was 1.1%; in [2], 0%; at salivary α-amylase, 0%; with pancreas α-amylase it was 0.2%. The Action entry in the data set on ICM-forming enzyme is “−”.
